According to ChEMBL document CHEMBL1159126, “Salicylanilide carbamates: antitubercular agents active against multidrug-resistant Mycobacterium tuberculosis strains” (Bioorg Med Chem, 2010):
≈ marks a conversion by molar mass, not a printed value.

Tests used:
[1] = tested on: Mycobacterium tuberculosis; test: microbe, parasite or virus in culture; details: 331/88, 504 h
Description: Antimycobacterial activity against Mycobacterium tuberculosis 331/88 after 21 days by micromethod

Mycobacterium avium [2] = test: Antimycobacterial activity against Mycobacterium avium 330/88 after 21 days by micromethod; format: functional; details: 330/88, 504 h
Mycobacterium kansasii [3] = test: Antimycobacterial activity against Mycobacterium kansasii 235/80 after 21 days by micromethod; format: functional; details: 235/80, 504 h
[4] = tested on: Mycobacterium tuberculosis; test: microbe, parasite or virus in culture; details: 331/88, 336 h
Description: Antimycobacterial activity against Mycobacterium tuberculosis 331/88 after 14 days by micromethod

Mycobacterium avium [5] = test: Antimycobacterial activity against Mycobacterium avium 330/88 after 14 days by micromethod; format: functional; details: 330/88, 336 h
Mycobacterium kansasii [6] = test: Antimycobacterial activity against Mycobacterium kansasii 235/80 after 14 days by micromethod; format: functional; details: 235/80, 336 h
Mycobacterium kansasii [7] = test: Antimycobacterial activity against Mycobacterium kansasii 6509/96 after 21 days by micromethod; format: functional; details: 6509/96, 504 h
[8] = Partition coefficient, log P of the compound; format: physicochemical; details: octanol/water
Mycobacterium kansasii [9] = test: Antimycobacterial activity against Mycobacterium kansasii 6509/96 after 14 days by micromethod; format: functional; details: 6509/96, 336 h
[10] = Toxicity against human HCT8 cells after 72 hrs by XTT assay; format: cell-based, HCT-8

SMILES	MIC [1] [µM]	MIC (Mycobacterium avium [2]) [µM]	MIC (Mycobacterium kansasii [3]) [µM]	MIC [4] [µM]	MIC (Mycobacterium avium [5]) [µM]	MIC (Mycobacterium kansasii [6]) [µM]	MIC (Mycobacterium kansasii [7]) [µM]	logP [8]	MIC (Mycobacterium kansasii [9]) [µM]	EC50 at 72 h [10] [µM]
CCCCCCCCCCCNC(=O)Oc1ccc(Cl)cc1C(=O)Nc1ccc(Cl)c(Cl)c1	2 (≈ 1.03 µg/mL)	16 (≈ 8.22 µg/mL)	4 (≈ 2.06 µg/mL)	2 (≈ 1.03 µg/mL)	16 (≈ 8.22 µg/mL)	4 (≈ 2.06 µg/mL)	4 (≈ 2.06 µg/mL)	8.17	4 (≈ 2.06 µg/mL)	–
CCCCCCCCCCCNC(=O)Oc1ccc(Cl)cc1C(=O)Nc1cccc(Cl)c1	2 (≈ 0.959 µg/mL)	8 (≈ 3.84 µg/mL)	8 (≈ 3.84 µg/mL)	2 (≈ 0.959 µg/mL)	8 (≈ 3.84 µg/mL)	8 (≈ 3.84 µg/mL)	8 (≈ 3.84 µg/mL)	7.61	8 (≈ 3.84 µg/mL)	–
CCCCCCCCCNC(=O)Oc1ccc(Cl)cc1C(=O)Nc1ccc(Cl)cc1	2 (≈ 0.903 µg/mL)	16 (≈ 7.22 µg/mL)	4 (≈ 1.81 µg/mL)	2 (≈ 0.903 µg/mL)	8 (≈ 3.61 µg/mL)	4 (≈ 1.81 µg/mL)	4 (≈ 1.81 µg/mL)	6.78	4 (≈ 1.81 µg/mL)	–
CCCCCCCCCCNC(=O)Oc1ccc(Cl)cc1C(=O)Nc1cccc(Cl)c1	2 (≈ 0.931 µg/mL)	8 (≈ 3.72 µg/mL)	8 (≈ 3.72 µg/mL)	1 (≈ 0.465 µg/mL)	8 (≈ 3.72 µg/mL)	8 (≈ 3.72 µg/mL)	8 (≈ 3.72 µg/mL)	7.19	8 (≈ 3.72 µg/mL)	–
CCCCCNC(=O)Oc1ccc(Cl)cc1C(=O)Nc1ccc(Cl)c(Cl)c1	0.5 (≈ 0.215 µg/mL)	16 (≈ 6.88 µg/mL)	2 (≈ 0.859 µg/mL)	0.5 (≈ 0.215 µg/mL)	8 (≈ 3.44 µg/mL)	2 (≈ 0.859 µg/mL)	4 (≈ 1.72 µg/mL)	5.67	2 (≈ 0.859 µg/mL)	40
CCCCCCCCCCCNC(=O)Oc1ccc(Cl)cc1C(=O)Nc1ccc(Cl)cc1	2 (≈ 0.959 µg/mL)	8 (≈ 3.84 µg/mL)	8 (≈ 3.84 µg/mL)	2 (≈ 0.959 µg/mL)	8 (≈ 3.84 µg/mL)	8 (≈ 3.84 µg/mL)	8 (≈ 3.84 µg/mL)	7.61	8 (≈ 3.84 µg/mL)	–
CCCCCCCCCNC(=O)Oc1ccc(Cl)cc1C(=O)Nc1cccc(Cl)c1	2 (≈ 0.903 µg/mL)	4 (≈ 1.81 µg/mL)	4 (≈ 1.81 µg/mL)	1 (≈ 0.451 µg/mL)	2 (≈ 0.903 µg/mL)	4 (≈ 1.81 µg/mL)	4 (≈ 1.81 µg/mL)	6.78	4 (≈ 1.81 µg/mL)	–
CCCCNC(=O)Oc1ccc(Cl)cc1C(=O)Nc1cccc(Cl)c1	4 (≈ 1.53 µg/mL)	16 (≈ 6.1 µg/mL)	16 (≈ 6.1 µg/mL)	2 (≈ 0.763 µg/mL)	8 (≈ 3.05 µg/mL)	16 (≈ 6.1 µg/mL)	16 (≈ 6.1 µg/mL)	4.69	8 (≈ 3.05 µg/mL)	–
CCNC(=O)Oc1ccc(Cl)cc1C(=O)Nc1cccc(Cl)c1	2 (≈ 0.706 µg/mL)	8 (≈ 2.83 µg/mL)	8 (≈ 2.83 µg/mL)	2 (≈ 0.706 µg/mL)	8 (≈ 2.83 µg/mL)	8 (≈ 2.83 µg/mL)	8 (≈ 2.83 µg/mL)	3.79	8 (≈ 2.83 µg/mL)	–
CCCCCCCCNC(=O)Oc1ccc(Cl)cc1C(=O)Nc1cccc(Cl)c1	2 (≈ 0.875 µg/mL)	4 (≈ 1.75 µg/mL)	8 (≈ 3.5 µg/mL)	2 (≈ 0.875 µg/mL)	4 (≈ 1.75 µg/mL)	8 (≈ 3.5 µg/mL)	8 (≈ 3.5 µg/mL)	6.36	4 (≈ 1.75 µg/mL)	–
CCCCNC(=O)Oc1ccc(Cl)cc1C(=O)Nc1ccc(Cl)cc1	2 (≈ 0.763 µg/mL)	8 (≈ 3.05 µg/mL)	4 (≈ 1.53 µg/mL)	2 (≈ 0.763 µg/mL)	4 (≈ 1.53 µg/mL)	4 (≈ 1.53 µg/mL)	4 (≈ 1.53 µg/mL)	4.69	2 (≈ 0.763 µg/mL)	–
CCNC(=O)Oc1ccc(Cl)cc1C(=O)Nc1ccc(Cl)cc1	2 (≈ 0.706 µg/mL)	8 (≈ 2.83 µg/mL)	8 (≈ 2.83 µg/mL)	1 (≈ 0.353 µg/mL)	8 (≈ 2.83 µg/mL)	4 (≈ 1.41 µg/mL)	8 (≈ 2.83 µg/mL)	3.79	4 (≈ 1.41 µg/mL)	–
CCCCCCCCNC(=O)Oc1ccc(Cl)cc1C(=O)Nc1ccc(Cl)c(Cl)c1	1 (≈ 0.472 µg/mL)	8 (≈ 3.77 µg/mL)	4 (≈ 1.89 µg/mL)	0.5 (≈ 0.236 µg/mL)	4 (≈ 1.89 µg/mL)	2 (≈ 0.944 µg/mL)	4 (≈ 1.89 µg/mL)	6.92	2 (≈ 0.944 µg/mL)	48.5
CCCCCNC(=O)Oc1ccc(Cl)cc1C(=O)Nc1ccc(Cl)cc1	0.5 (≈ 0.198 µg/mL)	8 (≈ 3.16 µg/mL)	4 (≈ 1.58 µg/mL)	0.5 (≈ 0.198 µg/mL)	8 (≈ 3.16 µg/mL)	2 (≈ 0.791 µg/mL)	4 (≈ 1.58 µg/mL)	5.11	4 (≈ 1.58 µg/mL)	17.4
